Experimental findings from patent US6310043A (priority 1999, dated 2001) are described below.

Structures are written as SMILES.

The term IC50 denotes the point on the concentration scale where inhibition reaches its midpoint.

What all share (format): binding, E. coli
One test has as its target SLT-1 (VT-1) (Bacteriophage H30, UniProt P69178).
The next test addresses SLT-1 (Verotoxin I) (Bacteriophage H30, UniProt P69178). As to the kind of experiment: biochemical. The conditions noted are these: for IC50: read-out: IC50.
In a further test the target is SLT-2 (VT-2) (Escherichia phage 933W, UniProt P09386).
Where [1] appears, read: solid phase assays, protocol A or B.

Chain of SLT-1 (Verotoxin I) (P69178 whole entry, looked up): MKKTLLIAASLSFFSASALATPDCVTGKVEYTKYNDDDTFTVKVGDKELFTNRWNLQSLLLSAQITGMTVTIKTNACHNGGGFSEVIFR
Chain of SLT-1 (VT-1) (P69178 whole entry, looked up): as above
Chain of SLT-2 (VT-2) (P09386 whole entry, looked up): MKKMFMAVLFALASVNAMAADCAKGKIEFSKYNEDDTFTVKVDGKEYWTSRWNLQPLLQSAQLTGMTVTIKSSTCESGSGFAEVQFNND

Consider `CO[C@@H]1O[C@H](CO)[C@@H](O[C@@H]2O[C@H](CO)[C@H](O[C@H]3O[C@H](CO)[C@H](O)[C@H](O)[C@H]3O)[C@H](O)[C@H]2OCCOC(=O)NCC(CNC(=O)OCCO[C@H]2[C@H](O[C@H]3[C@H](O)[C@@H](O)[C@H](OC)O[C@@H]3CO)O[C@H](CO)[C@H](O[C@H]3O[C@H](CO)[C@H](O)[C@H](O)[C@H]3O)[C@@H]2O)OC(=O)NCCCCCCCCNc2c(NCCNC(=O)CSCCCO[C@@H]3[C@@H](OCCCSCC(=O)NCCNc4c(NCCCCCCCCNC(=O)OC(CNC(=O)OCCO[C@H]5[C@H](O[C@H]6[C@H](O)[C@@H](O)[C@H](OC)O[C@@H]6CO)O[C@H](CO)[C@H](O[C@H]6O[C@H](CO)[C@H](O)[C@H](O)[C@H]6O)[C@@H]5O)CNC(=O)OCCO[C@H]5[C@H](O[C@H]6[C@H](O)[C@@H](O)[C@H](OC)O[C@@H]6CO)O[C@H](CO)[C@H](O[C@H]6O[C@H](CO)[C@H](O)[C@H](O)[C@H]6O)[C@@H]5O)c(=O)c4=O)[C@H](OC)O[C@H](CO)[C@H]3OCCCSCC(=O)NCCNc3c(NCCCCCCCCNC(=O)OC(CNC(=O)OCCO[C@H]4[C@H](O[C@H]5[C@H](O)[C@@H](O)[C@H](OC)O[C@@H]5CO)O[C@H](CO)[C@H](O[C@H]5O[C@H](CO)[C@H](O)[C@H](O)[C@H]5O)[C@@H]4O)CNC(=O)OCCO[C@H]4[C@H](O[C@H]5[C@H](O)[C@@H](O)[C@H](OC)O[C@@H]5CO)O[C@H](CO)[C@H](O[C@H]5O[C@H](CO)[C@H](O)[C@H](O)[C@H]5O)[C@@H]4O)c(=O)c3=O)c(=O)c2=O)[C@H](O)[C@H]1O` [Compound 24], for which the IC50 at SLT-1 (VT-1) turned out to be 470 nM; at SLT-1 (Verotoxin I) it was 48 nM; against SLT-2 (VT-2), 29 nM.
Take `CO[C@@H]1O[C@H](CO)[C@@H](O[C@@H]2O[C@H](CO)[C@H](O[C@H]3O[C@H](CO)[C@H](O)[C@H](O)[C@H]3O)[C@H](O)[C@H]2OCCOC(=O)NCCCCCCCCNc2c(NCCNC(=O)CSCCCOC[C@H]3O[C@@H](OCCCSCC(=O)NCCNc4c(NCCCCCCCCNC(=O)OCCO[C@H]5[C@H](O[C@H]6[C@H](O)[C@@H](O)[C@H](OC)O[C@@H]6CO)O[C@H](CO)[C@H](O[C@H]6O[C@H](CO)[C@H](O)[C@H](O)[C@H]6O)[C@@H]5O)c(=O)c4=O)[C@H](OCCCSCC(=O)NCCNc4c(NCCCCCCCCNC(=O)OCCO[C@H]5[C@H](O[C@H]6[C@H](O)[C@@H](O)[C@H](OC)O[C@@H]6CO)O[C@H](CO)[C@H](O[C@H]6O[C@H](CO)[C@H](O)[C@H](O)[C@H]6O)[C@@H]5O)c(=O)c4=O)[C@@H](OCCCSCC(=O)NCCNc4c(NCCCCCCCCNC(=O)OCCO[C@H]5[C@H](O[C@H]6[C@H](O)[C@@H](O)[C@H](OC)O[C@@H]6CO)O[C@H](CO)[C@H](O[C@H]6O[C@H](CO)[C@H](O)[C@H](O)[C@H]6O)[C@@H]5O)c(=O)c4=O)[C@@H]3OCCCSCC(=O)NCCNc3c(NCCCCCCCCNC(=O)OCCO[C@H]4[C@H](O[C@H]5[C@H](O)[C@@H](O)[C@H](OC)O[C@@H]5CO)O[C@H](CO)[C@H](O[C@H]5O[C@H](CO)[C@H](O)[C@H](O)[C@H]5O)[C@@H]4O)c(=O)c3=O)c(=O)c2=O)[C@H](O)[C@H]1O` [Compound 25]: the IC50 against SLT-1 (VT-1) turned out to be 1230 nM; on SLT-1 (Verotoxin I), 24 nM. The “fold less active when compared to 22” value on SLT-1 (Verotoxin I) (solid phase assays, protocol A or B, SLT-1) is listed as 500-1000 fold.
For the molecule `CO[C@@H]1O[C@H](CO)[C@@H](O[C@@H]2O[C@H](CO)[C@H](O[C@H]3O[C@H](CO)[C@H](O)[C@H](O)[C@H]3O)[C@H](O)[C@H]2OCCOC(=O)NCCCCCCCCNc2c(NCCNC(=O)CSCCCOC[C@H]3O[C@@H](OC)[C@H](OCCCSCC(=O)NCCNc4c(NCCCCCCCCNC(=O)OCCO[C@H]5[C@H](O[C@H]6[C@H](O)[C@@H](O)[C@H](OC)O[C@@H]6CO)O[C@H](CO)[C@H](O[C@H]6O[C@H](CO)[C@H](O)[C@H](O)[C@H]6O)[C@@H]5O)c(=O)c4=O)[C@@H](OCCCSCC(=O)NCCNc4c(NCCCCCCCCNC(=O)OCCO[C@H]5[C@H](O[C@H]6[C@H](O)[C@@H](O)[C@H](OC)O[C@@H]6CO)O[C@H](CO)[C@H](O[C@H]6O[C@H](CO)[C@H](O)[C@H](O)[C@H]6O)[C@@H]5O)c(=O)c4=O)[C@@H]3OCCCSCC(=O)NCCNc3c(NCCCCCCCCNC(=O)OCCO[C@H]4[C@H](O[C@H]5[C@H](O)[C@@H](O)[C@H](OC)O[C@@H]5CO)O[C@H](CO)[C@H](O[C@H]5O[C@H](CO)[C@H](O)[C@H](O)[C@H]5O)[C@@H]4O)c(=O)c3=O)c(=O)c2=O)[C@H](O)[C@H]1O` [Compound 26], the IC50 at SLT-1 (VT-1) worked out at 3400 nM; at SLT-1 (Verotoxin I), 350 nM. Moreover, the “relative inhibition of SLT-1 binding to P^k ligand (in words)” value at SLT-1 (Verotoxin I) (setting [1]) was “the activity drops by several orders of magnitude”.
`CO[C@@H]1O[C@H](CO)[C@@H](O[C@@H]2O[C@H](CO)[C@H](O[C@H]3O[C@H](CO)[C@H](O)[C@H](O)[C@H]3O)[C@H](O)[C@H]2OCCOC(=O)NCCCCCCCCNc2c(NCCNC(=O)CSCCCO[C@@H]3[C@@H](OCCCSCC(=O)NCCNc4c(NCCCCCCCCNC(=O)OCCO[C@H]5[C@H](O[C@H]6[C@H](O)[C@@H](O)[C@H](OC)O[C@@H]6CO)O[C@H](CO)[C@H](O[C@H]6O[C@H](CO)[C@H](O)[C@H](O)[C@H]6O)[C@@H]5O)c(=O)c4=O)[C@H](OC)O[C@H](CO)[C@H]3OCCCSCC(=O)NCCNc3c(NCCCCCCCCNC(=O)OCCO[C@H]4[C@H](O[C@H]5[C@H](O)[C@@H](O)[C@H](OC)O[C@@H]5CO)O[C@H](CO)[C@H](O[C@H]5O[C@H](CO)[C@H](O)[C@H](O)[C@H]5O)[C@@H]4O)c(=O)c3=O)c(=O)c2=O)[C@H](O)[C@H]1O` [Compound 27]: the values for the IC50 against SLT-1 (VT-1) and on SLT-1 (Verotoxin I) were 13600 nM and 3500 nM, respectively. Also, at SLT-1 (Verotoxin I) (setting [1]), the “relative inhibition of SLT-1 binding to P^k ligand (in words)” value was “the activity drops by several orders of magnitude”.
